In one series the test system is HT29. In words: NCI 60 cell line screen, HT29. It counts as cell-based, human. To be noted: Colon Cancer. As to the method:
(§1) The activity of Compound 8C was tested against 60 different human tumor cell lines at the National Cancer Institute, using the standard NCI 60 screening protocol.

The next series relates to K-562. In words: NCI 60 cell line screen, K-562. The note with it: Leukemia. It is filed as cell-based, human. As for the experimental part: as §1
The test system of the next series is MCF7. In words: NCI 60 cell line screen, MCF7. It counts as cell-based, human. The note with it: Breast Cancer. As for the experimental part:
as §1

A further series deals with MDA-MB-231/ATCC. In words: NCI 60 cell line screen, MDA-MB-231/ATCC. It is filed as cell-based, human. The note with it: Breast Cancer. As to the method: as §1
The next series deals with HL-60(TB). In words: NCI 60 cell line screen, HL-60(TB). It counts as cell-based, human. To be noted: Leukemia. As to the method:
as §1

The subject of another series is HCC-2998. In words: NCI 60 cell line screen, HCC-2998. To be noted: Colon Cancer. It counts as cell-based, human. As to the method:
as §1

The next series relates to UACC-257. In words: NCI 60 cell line screen, UACC-257. It counts as cell-based, human. The note with it: Melanoma. As for the experimental part:
as §1

In a further series the test system is COLO 205. In words: NCI 60 cell line screen, COLO 205. It is filed as cell-based, human. The note with it: Colon Cancer. As for the experimental part: as §1
The test system of another series is SK-MEL-28. In words: NCI 60 cell line screen, SK-MEL-28. It is filed as cell-based, human. The note with it: Melanoma. As for the experimental part:
as §1

In the next series the test system is M14. In words: NCI 60 cell line screen, M14. It counts as cell-based, human. To be noted: Melanoma. As to the method:
as §1

The next series has as its system MDA-MB-468. In words: NCI 60 cell line screen, MDA-MB-468. The note with it: Breast Cancer. It is filed as cell-based, human. As to the method: as §1
For series [1], the system named is PanIn (Pancreatic Intraepithelial Neoplasia). In words: Pancreatic tumor model (KC mice), PanIn. It is filed as in vivo. To be noted: oral gavage, 30 mg/kg body weight, daily. As to the method: 6-week old KC mice were treated with Compound 8C via oral gavage (30 mg/kg body weight, daily).
The next series concerns the target T1, purified EGFR (Homo sapiens, UniProt P00533).
T1 construct: WT-EGFR kinase domain (aa696-1022, active kinase); made in house; host or cells: SF9 insect cells
In words: Competition with Biotin-Disruptin for purified EGFR. It counts as binding. The note with it: 15 minutes at 37° C. As for the experimental part: To determine if Compound 8C competes for the same binding site on EGFR, Biotin-Disruptin-Avidin coupled beads were incubated with purified EGFR in the presence or absence of Compound 8C for 15 minutes at 37° C. The agarose beads were spun down, and the non-specific protein removed by washing in citrate buffer. The bound protein was released in Laemmli buffer and resolved by SDS page.

The test system of a further series is UM1 cells. In words: Clonogenic IC50, UM1. It counts as cell-based.
Series [2] in a line: Pharmacokinetics in tumor and plasma, NCI-H1975 xenograft mice. It is filed as in vivo, nude mice. The note with it: for half-life: nude, mouse, ip. As to the method: The IC50 and IC90 for PC9-AZR, and HCC827-AZR, range from ˜1.5 to ˜4 μM (see FIG. 7A). It is interesting to note that the peak plasma concentration was 5.4±1.5 μM for 30 minutes. […] Prolonged drug accumulation in tumors despite rapid systemic clearance is ideal for therapeutic use. The data at the 24 hour time point indicate that the agent may be suitable for daily administration. After observing selective accumulation of Compound 8C in tumors injected i.p., it was determined if Compound 8C is orally available. For oral administration, Compound 8C was formulated in 20% tween 80 in PBS (v/v) after brief sonication. Mice received 100 mg/kg by oral gavage. The concentrations of Compound 8C in tumor and plasma samples at 7 hours, 15 hours and 24 hours were determined and are plotted in FIG. 8B.
For intraperitoneal injection Compound 8C was formulated at 10 mg/mL in PBS with 5% DMSO by adjusting the pH to 5.5. For oral administration, a homogenous suspension was prepared in 20% tween 80 upon brief sonication. Initially, a single 100 mg/kg dose of Compound 8C was given i.p. (FIG. 8A) or gavaged into nude mice bearing human NCI-H1975 tumor xenografts (>150 mm3) (FIG. 8B). Mice were euthanized at time 0, 30 minutes, 1 hour, 3 hours, 7 hours, 15 hours, and at 24 hours. Tumor and plasma samples were collected. In case of mice orally gavaged, plasma and tumor samples were collected only at 7 hours, 15 hours and at 24 hours. The concentration of Compound 8C in plasma and tumor was determined and the resulting data are plotted in terms of molar concentration.

Read-outs that look alike come from different tables or passages of the source. A value given as a limit tells only on which side of the number the result lay.

For orientation: IC50 means the concentration that gives 50% inhibition. Read a high IC50 as weaker potency in that assay. One may read the half-life as the time in which the quantity being followed falls by half.

T1 sequence (P00533 696-1022): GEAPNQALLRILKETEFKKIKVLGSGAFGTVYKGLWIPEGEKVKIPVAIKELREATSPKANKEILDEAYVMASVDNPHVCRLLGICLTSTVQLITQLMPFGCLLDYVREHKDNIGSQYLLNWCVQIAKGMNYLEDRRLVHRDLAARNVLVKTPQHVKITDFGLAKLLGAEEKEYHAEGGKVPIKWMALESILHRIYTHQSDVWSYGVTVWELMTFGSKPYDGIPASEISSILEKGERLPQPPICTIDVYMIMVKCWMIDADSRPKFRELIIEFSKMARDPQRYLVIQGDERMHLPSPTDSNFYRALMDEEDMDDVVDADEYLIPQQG

`CN1CCC2(CC1)N=C(SCC(=O)Nc1cnc3ccccc3c1)C(c1ccc(Br)cc1)=N2` [Compound 8C, 2-((3-(4-bromophenyl)-8-methyl-1,4,8-triazaspiro[4.5]deca-1,3-dien-2-yl)thio)-N-(quinolin-3-yl)acetamide]: the “Percent Growth” value is −67.1% in the series on HT29; −61.5% in the series on K-562; −42.7% with MCF7; −40.5% in the series with MDA-MB-231/ATCC; −40.7% with HL-60(TB); −51.3% in the series on HCC-2998. For the same compound, the “Percent Growth” value in the series on UACC-257 is recorded as −61.2%; with COLO 205 it was −76.2%; with SK-MEL-28, −70.1%; in the series on M14, −83.8%; in the series on MDA-MB-468, −43.8%. Moreover, the “propensity for developing PanIn” value in [1] is recorded as “significantly reduced propensity”. The “inhibition of Disruptin-EGFR binding” value on purified EGFR is “Competitive inhibition”. In the series on UM1 cells, this compound gave an IC50 of 0.5 µM. The peak plasma concentration in series [2] (100 mg/kg i.p., single dose, for 30 minutes) is 5.4 ± 1.5 µM. For the same compound, in [2] (100 mg/kg i.p., single dose, for ≥7 hours), the “peak concentration achieved in the tumor” value is 69.7 ± 15.68 µM. Also, the tumor accumulation entry in [2] (i.p. injection) is “selectively accumulates in the tumor”. For the same compound, the half-life is 7.96 h in series [2] (plasma, 100 mg/kg i.p., single dose, read-out: plasma half-life (converted)) and over 24 h in [2] (tumor, 100 mg/kg i.p., single dose, read-out: half-life in the tumor).

(Values after patent publication US11358965B2, “EGFR dimer disruptors and use of the same” (THE REGENTS OF THE UNIVERSITY OF MICHIGAN, priority 2018, dated 2022).)
